Assay results published in EP0351597A2, “"N15-alkyl and N15,N15-di-alkyl derivatives of teicoplanin antibiotics carrying functional groups on the alkyl side chain” (GRUPPO LEPETIT S.p.A., priority 1988, dated 1990).
Values after ≈ are worked out from the molar mass of the structure shown. Like-named read-outs stand apart in the source and are kept apart here.

Assays:
[1] = system: P. vulgaris X19H ATCC 881; test: In vitro antibacterial activity (MIC), standard dilution test; assay type: cell-based
P. aeruginosa ISM = test: as above; assay type: cell-based
S. pyogenes L 49 = test: In vivo test in mice experimentally infected with S. pyogenes L 49 (ED50)
Description: The ED₅₀ values (mg/Kg) of representative compounds of the invention in vivo tests in mice experimentally infected with S. pyogenes L 49 and reported in Table V were carried out according to the procedure described by V. Arioli et al., Journal of Antibiotics 29, 511 (1976).

S. aureus Tour = test: In vitro antibacterial activity (MIC), standard dilution test; assay type: cell-based
From the text: Isosensitest broth (Oxoid) and Todd-Hewitt broth (Difco) are used for growing staphylococci and streptococci, respectively. […]

E. coli SKF 12140 = test: as above; assay type: cell-based
[2] = system: S. epidermidis ATCC 12228; test: as above; assay type: cell-based
Description: (§1) Isosensitest broth (Oxoid) and Todd-Hewitt broth (Difco) are used for growing staphylococci and streptococci, respectively. Broth cultures are diluted so that the final inoculum is about 10⁴ colony forming units/ml (CFU/ml).

S. haemolyticus L 602 = test: as above; assay type: cell-based
Description: as §1

S. pneumoniae UC41 = test: as above; assay type: cell-based
Description: as §1

S. pyogenes C203 = test: as above; assay type: cell-based
Description: as §1

S. faecalis ATCC 7080 = test: as above; assay type: cell-based
Description: as §1

Acid-base titration = assay type: physicochemical; settings: Methylcellosolve/H₂O, 4/1 (v/v); titrated with 0.01 N NaOH after adding 0.01 N HCl
[3] = Proteus vulgaris, ATCC881, read-out: MIC
[4] = Pseudomonas aeruginosa, read-out: MIC
[5] = Streptococcus pyogenes, L49, sc, S. pyogenes L 49, s.c., read-out: ED50
[6] = Staphylococcus aureus, S. aureus Tour 10^4, read-out: MIC
[7] = Staphylococcus aureus, S. aureus Tour 10^6, read-out: MIC
[8] = Staphylococcus aureus, S. aureus Tour + 30% bovine serum, read-out: MIC
[9] = Escherichia coli, SKF12140, read-out: MIC
[10] = Staphylococcus epidermidis, ATCC12228, read-out: MIC
[11] = Streptococcus pneumoniae, read-out: MIC
[12] = Streptococcus pyogenes, read-out: MIC
[13] = Enterococcus faecalis, ATCC7080, read-out: MIC
[14] = Staphylococcus haemolyticus, L602, S. haemolyticus L 602, no visible growth after 18-24 h at 37°C, inoculum about 10⁴ CFU/ml, read-out: MIC
[15] = S. aureus Tour + 30% bovine serum
[16] = S. haemolyticus L 602, no visible growth after 18-24 h at 37°C, inoculum about 10⁴ CFU/ml

| Compound | MIC [1, 3] [µg/mL] | MIC (P. aeruginosa ISM; [4]) [µg/mL] | ED50 (S. pyogenes L 49; [5]) [mg/kg] | MIC (S. aureus Tour; [6]) [µg/mL] | MIC (S. aureus Tour; [7]) [µg/mL] | MIC (S. aureus Tour; [8]) [µg/mL] | MIC (E. coli SKF 12140; [9]) [µg/mL] | pK₁ (Acid-base titration) | pK₂ (Acid-base titration) | MIC [1] [microgram/ml] | MIC (P. aeruginosa ISM) [microgram/ml] | MIC (S. aureus Tour; S. aureus Tour 10^4) [microgram/ml] | MIC (S. aureus Tour; S. aureus Tour 10^6) [microgram/ml] | MIC (S. aureus Tour; [15]) [microgram/ml] | MIC (E. coli SKF 12140) [microgram/ml] | MIC [2] [microgram/ml] | MIC (S. haemolyticus L 602; [16]) [microgram/ml] | MIC (S. pneumoniae UC41) [microgram/ml] | MIC (S. pyogenes C203) [microgram/ml] | MIC (S. faecalis ATCC 7080) [microgram/ml] | further results |
| --- | --- | --- | --- | --- | --- | --- | --- | --- | --- | --- | --- | --- | --- | --- | --- | --- | --- | --- | --- | --- | --- |
| CN(C)CCNC1C(=O)NC2Cc3ccc(c(Cl)c3)Oc3cc4cc(c3O)Oc3ccc(cc3Cl)C(O)C3NC(=O)C(NC(=O)C4NC(=O)C(NC2=O)c2cc(O)cc(c2)Oc2cc1ccc2O)c1ccc(O)c(c1)-c1c(O)cc(O)cc1C(C(=O)O)NC3=O (stereo not drawn) [Compound 5, N¹⁵-(2-dimethylamino)ethyl teicoplanin aglycon] | > 128 | > 128 | 1.25 | 0.125 (≈ 0.0984 µM) | 0.125 (≈ 0.0984 µM) | 1 | > 128 | 4.75 | 6.5 | – | – | – | – | – | – | – | – | – | – | – | MIC [2, 10]: 0.06 µg/mL (≈ 0.0472 µM); MIC (S. haemolyticus L 602; Staphylococcus haemolyticus, L602): 0.5 µg/mL (≈ 0.394 µM); MIC (S. pneumoniae UC41; [11]): 0.125 µg/mL (≈ 0.0984 µM); MIC (S. pyogenes C203; [12]): 0.25 µg/mL (≈ 0.197 µM); MIC (S. faecalis ATCC 7080; [13]): 0.25 µg/mL (≈ 0.197 µM) |
| CC(CO)NC1C(=O)NC2Cc3ccc(c(Cl)c3)Oc3cc4cc(c3O)Oc3ccc(cc3Cl)C(O)C3NC(=O)C(NC(=O)C4NC(=O)C(NC2=O)c2cc(O)cc(c2)Oc2cc1ccc2O)c1ccc(O)c(c1)-c1c(O)cc(O)cc1C(C(=O)O)NC3=O (stereo not drawn) [Compound 7, N¹⁵-(1-methyl-2-hydroxy)ethyl teicoplanin aglycon] | > 128 | > 128 | 0.84 | 0.06 (≈ 0.0477 µM) | 0.12 (≈ 0.0955 µM) | 1 | > 128 | – | – | – | – | – | – | – | – | – | – | – | – | – | MIC [2, 10]: 0.06 µg/mL (≈ 0.0477 µM); MIC (S. haemolyticus L 602; [14]): 0.5 µg/mL (≈ 0.398 µM); MIC (S. pneumoniae UC41; [11]): 0.12 µg/mL (≈ 0.0955 µM); MIC (S. pyogenes C203; [12]): 0.12 µg/mL (≈ 0.0955 µM); MIC (S. faecalis ATCC 7080; [13]): 0.25 µg/mL (≈ 0.199 µM) |
| CC(O)C(C)NC1C(=O)NC2Cc3ccc(c(Cl)c3)Oc3cc4cc(c3O)Oc3ccc(cc3Cl)C(O)C3NC(=O)C(NC(=O)C4NC(=O)C(NC2=O)c2cc(O)cc(c2)Oc2cc1ccc2O)c1ccc(O)c(c1)-c1c(O)cc(O)cc1C(C(=O)O)NC3=O (stereo not drawn) [Compound 8, N¹⁵-(1-methyl-2-hydroxy)propyl teicoplanin aglycon] | > 128 | > 128 | 0.86 | 0.12 (≈ 0.0944 µM) | 0.12 (≈ 0.0944 µM) | 2 | > 128 | – | – | – | – | – | – | – | – | – | – | – | – | – | MIC [2, 10]: 0.06 µg/mL (≈ 0.0472 µM); MIC (S. haemolyticus L 602; [14]): 0.5 µg/mL (≈ 0.393 µM); MIC (S. pneumoniae UC41; [11]): 0.25 µg/mL (≈ 0.197 µM); MIC (S. pyogenes C203; [12]): 0.12 µg/mL (≈ 0.0944 µM); MIC (S. faecalis ATCC 7080; [13]): 0.12 µg/mL (≈ 0.0944 µM) |
| N¹⁵-(1-methyl-2-hydroxy)ethyl teicoplanin [Compound 6] | – | – | – | – | – | – | – | – | – | >128 | >128 | 0.25 | 1 | 2 | >128 | 0.5 | 1.6 | 0.25 | 0.12 | 0.12 | – |
| N¹⁵-(1-methyl-2-hydroxy)propyl) teicoplanin [Compound 2] | – | – | – | – | – | – | – | 5.05 | 6.35 | >128 | >128 | 0.5 | 1 | 2 | >128 | 0.25 | 16 | 0.25 | 0.06 | 0.12 | – |
| N¹⁵-(2,3-Dihydroxy)propyl teicoplanin [Compound 1] | – | – | – | – | – | – | – | 4.7 | 6 | >128 | >128 | 0.5 | 2 | 2 | >128 | 0.25 | 32 | 0.25 | 0.06 | 0.12 | – |
| N¹⁵-(2-dimethylamino)ethyl teicoplanin [Compound 3] | – | – | – | – | – | – | – | 4.85 | 6.2 | >128 | >128 | 0.125 | 0.5 | 0.5 | >128 | 0.125 | 2 | 0.125 | 0.125 | 0.125 | ED50 (S. pyogenes L 49; S. pyogenes L 49, o.s.): >300 mg/kg; ED50 (S. pyogenes L 49; S. pyogenes L 49, s.c.): 0.41 mg/kg; pK₃ (Acid-base titration): 8.45 |
| N¹⁵-(2-methoxyethoxy)methyl teicoplanin [Compound 4] | – | – | – | – | – | – | – | – | – | >128 | >128 | 0.12 | 0.5 | 1 | >128 | 0.125 | 8 | 0.125 | 0.06 | 0.125 | – |
